Test systems include BT-549 breast; SR leukemia; SF-268 CNS; HCT-15 colon; RXF 393 renal; ACHN renal; MDA-MB-435; MDA-MB-231 breast; NCI-H226 lung; UO-31 renal.
Assay in all cases: inhibition of tumour cell growth, NCI panel, 48 h

Values joined by “and” are separate entries in the source; they are usually repeats but may differ in a detail not shown here. Equal values may be shown once.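 Method: 48-hour compound exposure of cells in 96-well plates, five concentrations, linear interpolation of endpoints. Abbreviation: GI50, concentration required for 50% inhibition of growth. At the TGI there is no net growth.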

For `N=C(N)/N=C(\N)c1c(-c2cc(O)ccc2O)nc2sccn12`, the GI50 was 30400 nM with BT-549 breast; 22700 nM in the assay with SR leukemia; greater than 100000 nM with SF-268 CNS; 26000 nM in the assay with HCT-15 colon; 20600 nM in the assay with RXF 393 renal; 20800 nM with ACHN renal. The GI50 in the assay with MDA-MB-435 was 18000 nM; with MDA-MB-231 breast, 18900 nM; with NCI-H226 lung it was greater than 100000 nM; in the assay on UO-31 renal, 22300 nM. Further, the TGI in the assay with BT-549 breast is 84.3 µM; in the assay with SR leukemia, 87.2 µM; with SF-268 CNS it was greater than 100 µM; in the assay on HCT-15 colon, 74.8 µM; in the assay on RXF 393 renal, 41.6 µM; in the assay with ACHN renal, 40.5 µM. For the same compound, the TGI with MDA-MB-435 is 35.3 µM; with MDA-MB-231 breast it was 39.8 µM; with NCI-H226 lung, greater than 100 µM; in the assay with UO-31 renal it was 47.9 µM.

`C[C@H](N)C(=O)N[C@@H]1[C@H]2C(=C(O)C[C@@H](O)[C@@H]2O)C(=O)O[C@]1(C)C(Cl)Cl`: the GI50 with BT-549 breast was 315 nM; in the assay with SR leukemia, 255 nM; with SF-268 CNS it was 150 nM; with HCT-15 colon, 894 nM; in the assay on ACHN renal, 309 nM; in the assay with MDA-MB-435, 309 nM. The GI50 with NCI-H226 lung was 266 nM; in the assay on UO-31 renal it was 763 nM. Further, the TGI is 2.57 µM and 1.53 µM with BT-549 breast; 7.55 µM in the assay with SR leukemia; 2.8 µM and 2.59 µM in the assay on SF-268 CNS; 10.1 µM and 5.57 µM in the assay with HCT-15 colon; 0.828 µM and 1.08 µM in the assay on RXF 393 renal; 5.21 µM and 1.58 µM in the assay on ACHN renal. In addition, the TGI in the assay on MDA-MB-435 is 3.42 µM and 0.86 µM; in the assay on MDA-MB-231 breast it was 1.14 µM; with NCI-H226 lung, 1.34 µM and 1.06 µM; in the assay with UO-31 renal, 5.47 µM and 5.41 µM.

`C#CCSc1n[nH]c(-c2ccco2)n1`: the TGI in the assay with BT-549 breast, with SR leukemia, with SF-268 CNS, with HCT-15 colon, in the assay on RXF 393 renal and in the assay on ACHN renal was greater than 100 µM each time. Besides, the TGI in the assay on MDA-MB-435 was greater than 100 µM; with MDA-MB-231 breast, greater than 100 µM; in the assay with NCI-H226 lung, greater than 100 µM; with UO-31 renal it was 32 µM.

Regarding `O=C(N/N=C/c1ccccc1O)C(O)(c1ccccc1)c1ccccc1`, the GI50 in the assay on BT-549 breast was greater than 100000 nM; in the assay with SR leukemia it was 4290 nM; with SF-268 CNS, 8690 nM; in the assay on HCT-15 colon, 3540 nM; in the assay with RXF 393 renal, greater than 100000 nM; in the assay with ACHN renal it was 8430 nM. In addition, the GI50 in the assay with MDA-MB-435 was greater than 100000 nM; with MDA-MB-231 breast, 15000 nM; in the assay with NCI-H226 lung, greater than 100000 nM; in the assay on UO-31 renal, 2000 nM. Moreover, the TGI in the assay with BT-549 breast, with SR leukemia, in the assay on SF-268 CNS, in the assay on HCT-15 colon, in the assay on RXF 393 renal and with ACHN renal was greater than 100 µM each time. The TGI with MDA-MB-435, in the assay on MDA-MB-231 breast, with NCI-H226 lung and with UO-31 renal was greater than 100 µM throughout.

For the compound `C=CC(=O)N1C/C(=C\c2ccccc2)C(=O)/C(=C/c2ccccc2)C1`, the TGI was 4.24 µM with BT-549 breast; 0.935 µM and 5.24 µM with SR leukemia; 5.61 µM with SF-268 CNS; 4 µM in the assay with HCT-15 colon; 4.43 µM with RXF 393 renal; 4.53 µM in the assay with ACHN renal. Also, the TGI was 2.1 µM with MDA-MB-435, 4.55 µM in the assay with MDA-MB-231 breast, 10.6 µM in the assay on NCI-H226 lung and 3.43 µM in the assay with UO-31 renal. Moreover, the GI50 was 566 nM in the assay with SR leukemia and 270 nM in the assay with MDA-MB-435.

In the case of `NC(=O)/C(=C\c1ccncc1)c1cccc2ccccc12`, the TGI in the assay with BT-549 breast, in the assay on SR leukemia, in the assay on SF-268 CNS, with HCT-15 colon, with RXF 393 renal and in the assay with ACHN renal was greater than 100 µM throughout. Moreover, the TGI in the assay on MDA-MB-435 was greater than 100 µM; in the assay with MDA-MB-231 breast, greater than 100 µM; in the assay with NCI-H226 lung it was 95.2 µM; in the assay on UO-31 renal, greater than 100 µM.

As to `COC(=O)[C@H]1C(=O)[C@@]2(C)[C@H]([C@H](OC(=O)c3ccccc3)[C@]3(O)C[C@H](OC(=O)[C@H](O)[C@@H](NC(=O)c4ccc(F)cc4)c4ccccc4)C(C)=C1C3(C)C)[C@]1(OC(C)=O)CO[C@@H]1C[C@@H]2O`, the GI50 with BT-549 breast was 11 nM; with SR leukemia, 4.28 nM; in the assay with SF-268 CNS it was 15.1 nM; in the assay on HCT-15 colon, 553 nM; in the assay on RXF 393 renal it was 15.2 nM; in the assay with ACHN renal it was 1600 nM. Further, the GI50 with MDA-MB-435 was 2.5 nM; in the assay on MDA-MB-231 breast it was 41.4 nM; in the assay with NCI-H226 lung it was 612 nM; in the assay with UO-31 renal, 1890 nM. Besides, the TGI was 0.833 µM in the assay on BT-549 breast; 1.69 µM in the assay on SR leukemia; greater than 25 µM with SF-268 CNS; greater than 25 µM with HCT-15 colon; greater than 25 µM in the assay with RXF 393 renal; greater than 25 µM with ACHN renal. In addition, the TGI was 0.00604 µM in the assay on MDA-MB-435, greater than 14.4 µM in the assay with MDA-MB-231 breast, greater than 25 µM in the assay with NCI-H226 lung and greater than 25 µM in the assay with UO-31 renal.

On to `CN1CCC(CNc2ccc3ncc(-c4cccc(OC(F)(F)F)c4)n3n2)CC1`, for which the GI50 is 2450 nM and 4350 nM in the assay on BT-549 breast; 1900 nM and 1700 nM with SR leukemia; 1570 nM and 3200 nM with SF-268 CNS; 2000 nM and 2450 nM with HCT-15 colon; 1440 nM and 1720 nM with RXF 393 renal; 2140 nM and 3050 nM in the assay on ACHN renal. The GI50 was 1420 nM and 1540 nM with MDA-MB-435; 1620 nM and 1260 nM in the assay on MDA-MB-231 breast; 1820 nM and 3620 nM in the assay with NCI-H226 lung; 1160 nM and 1240 nM in the assay on UO-31 renal. Besides, the TGI in the assay with BT-549 breast was 10.9 µM and > 10 µM; in the assay on SR leukemia it was 5.24 µM and 4.46 µM; in the assay on SF-268 CNS, 3.64 µM and > 10 µM; in the assay on HCT-15 colon, 4.78 µM and > 10 µM; with RXF 393 renal it was 3.68 µM and 6.48 µM; with ACHN renal, 6.05 µM and > 10 µM. Besides, the TGI is 2.96 µM and 3.4 µM with MDA-MB-435; 3.65 µM and 2.77 µM in the assay with MDA-MB-231 breast; 8.49 µM and > 10 µM in the assay on NCI-H226 lung; 2.59 µM and 3.04 µM in the assay with UO-31 renal.

For the origin of these results see PubChem BioAssay (NCI).
